Results: ChEMBL document CHEMBL2203039, “Azabenzthiazole inhibitors of leukotriene A₄ hydrolase” (Bioorg Med Chem Lett, 2012)

Key:
[1] = Clearance in rat at 2 mg/kg, iv; assay type: ADME, organism-based; set-up: dose 2 mg/kg, route intravenous; details: in vivo
[2] = Half life in rat at 2 mg/kg, iv; assay type: ADME, organism-based; set-up: dose 2 mg/kg, route intravenous; details: in vivo
[3] = organism: Mus musculus; test: animal or person; assay type: functional; details: Balb/c, Blood, 3 h, route oral
[4] = molecular target: T1, Voltage-gated inwardly rectifying potassium channel KCNH2 (Homo sapiens, UniProt Q12809); test: Inhibition of human ERG by patch clamp assay
[5] = molecular target: T1, Voltage-gated inwardly rectifying potassium channel KCNH2; test: Inhibition of dofetilide binding to human ERG by radioligand binding assay
[6] = organism: Mus musculus; test: animal or person; assay type: functional, organism-based; details: Balb/c, Blood
[7] = Oral bioavailability in rat at 10 mg/kg; assay type: ADME, organism-based; details: in vivo
[8] = organism: Mus musculus; test: animal or person; assay type: functional; details: Balb/c, 3 h, route oral
[9] = Volume of distribution at steady state in rat at 2 mg/kg, iv; assay type: ADME, organism-based; set-up: dose 2 mg/kg, route intravenous; details: in vivo, read-out: Vdss
[10] = Cmax in rat at 10 mg/kg, po; assay type: ADME, organism-based; set-up: dose 10 mg/kg, route oral; details: in vivo
[11] = molecular target: T2, Leukotriene A-4 hydrolase (Homo sapiens, UniProt P09960); test: Inhibition of human recombinant LTA4 hydrolase expressed in SF9 cells using LTA4 as substrate assessed as LTB4 production incubated for 10 mins prior to substrate addition measured after 10 to 30 mins by enzyme immunoassay; assay type: cell-based
T2 sequence (P09960 whole entry): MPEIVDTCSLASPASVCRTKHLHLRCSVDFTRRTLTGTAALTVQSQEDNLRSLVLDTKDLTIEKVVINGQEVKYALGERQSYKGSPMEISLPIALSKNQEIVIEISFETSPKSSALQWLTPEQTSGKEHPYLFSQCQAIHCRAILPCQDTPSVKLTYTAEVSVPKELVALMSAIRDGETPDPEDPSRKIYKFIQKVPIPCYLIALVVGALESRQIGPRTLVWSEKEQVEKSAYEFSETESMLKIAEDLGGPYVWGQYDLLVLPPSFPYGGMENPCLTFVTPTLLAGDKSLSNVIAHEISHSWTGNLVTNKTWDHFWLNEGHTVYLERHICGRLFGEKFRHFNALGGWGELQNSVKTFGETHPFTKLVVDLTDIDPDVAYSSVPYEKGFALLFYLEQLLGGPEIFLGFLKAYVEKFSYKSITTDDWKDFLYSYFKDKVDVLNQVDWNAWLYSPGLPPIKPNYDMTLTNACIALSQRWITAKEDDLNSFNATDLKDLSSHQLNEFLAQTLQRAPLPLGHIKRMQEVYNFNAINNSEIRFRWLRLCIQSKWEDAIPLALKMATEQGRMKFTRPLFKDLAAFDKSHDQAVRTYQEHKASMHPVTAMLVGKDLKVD

T1 sequence (Q12809 whole entry): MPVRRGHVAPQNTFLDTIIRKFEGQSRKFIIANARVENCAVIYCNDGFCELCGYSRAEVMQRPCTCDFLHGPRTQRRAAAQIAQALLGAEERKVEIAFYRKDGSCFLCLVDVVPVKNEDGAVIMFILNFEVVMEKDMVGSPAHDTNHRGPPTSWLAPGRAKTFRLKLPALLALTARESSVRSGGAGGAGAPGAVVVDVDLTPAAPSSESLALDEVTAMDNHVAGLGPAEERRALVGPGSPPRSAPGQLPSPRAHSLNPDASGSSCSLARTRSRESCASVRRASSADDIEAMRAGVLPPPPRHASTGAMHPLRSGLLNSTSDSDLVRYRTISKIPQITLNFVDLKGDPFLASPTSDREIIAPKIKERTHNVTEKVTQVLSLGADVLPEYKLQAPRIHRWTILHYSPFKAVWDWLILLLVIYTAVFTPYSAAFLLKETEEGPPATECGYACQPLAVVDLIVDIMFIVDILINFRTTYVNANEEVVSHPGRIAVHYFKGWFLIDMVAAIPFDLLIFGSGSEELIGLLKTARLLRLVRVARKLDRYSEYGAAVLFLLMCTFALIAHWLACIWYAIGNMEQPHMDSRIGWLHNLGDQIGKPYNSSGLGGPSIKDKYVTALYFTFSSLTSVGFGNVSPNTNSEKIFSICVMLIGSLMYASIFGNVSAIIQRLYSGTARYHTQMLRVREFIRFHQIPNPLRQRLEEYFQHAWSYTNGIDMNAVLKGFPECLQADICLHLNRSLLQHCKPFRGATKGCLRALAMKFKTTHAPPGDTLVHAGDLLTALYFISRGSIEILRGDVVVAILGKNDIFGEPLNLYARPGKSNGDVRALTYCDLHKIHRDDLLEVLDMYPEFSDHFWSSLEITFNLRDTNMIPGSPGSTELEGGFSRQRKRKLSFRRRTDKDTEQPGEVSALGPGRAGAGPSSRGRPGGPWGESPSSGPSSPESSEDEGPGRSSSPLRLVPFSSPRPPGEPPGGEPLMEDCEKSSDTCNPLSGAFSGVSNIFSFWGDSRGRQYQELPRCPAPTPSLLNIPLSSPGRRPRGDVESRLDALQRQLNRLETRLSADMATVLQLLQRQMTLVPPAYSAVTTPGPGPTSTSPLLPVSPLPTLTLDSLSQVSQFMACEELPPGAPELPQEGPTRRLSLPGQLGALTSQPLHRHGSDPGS

Compound	IC50 [6]	IC50 [11]	clearance [1]	half-life [2]	inhibition in vivo at 30 mg/kg [3]	IC50 [4]	IC50 [5]	bioavailability [7]	inhibition in vivo at 30 mg/kg [8]	Vd [9]	Cmax [10]
NC(=O)C1CCN(Cc2ccc(Oc3nc4cccnc4s3)cc2)CC1	2040 nM	733 nM	–	–	–	–	–	–	–	–	–
CC(=O)N1CC2CC1CN2CCc1ccc(Oc2nc3ncccc3s2)cc1 (centres undefined)	30 nM	14 nM	–	–	90%	–	–	–	68%	–	–
CC(=O)N1CC2CN(CCc3ccc(Oc4nc5ncccc5s4)cc3)CC2C1 (centres undefined)	22 nM	6 nM	–	–	86%	–	> 10000 nM	–	79%	–	–
NC(=O)C1CCN(CCc2ccc(Oc3nc4ncccc4s3)cc2)CC1	50 nM	11 nM	–	–	76%	–	> 10000 nM	–	60%	–	–
c1cc2nc(Oc3ccc(CN4CCCCC4)cc3)sc2cn1	723 nM	614 nM	–	–	–	–	–	–	–	–	–
O=C1CCCN1C1CCN(CCc2ccc(Oc3nc4ncccc4s3)cc2)CC1	65 nM	14 nM	–	–	86%	2800 nM	–	–	75%	–	–
CC(=O)NC1CC2CCC(C1)N2Cc1ccc(Oc2nc3ncccc3s2)cc1 (centres undefined)	20 nM	1 nM	20 mL/min/kg	2 h	81%	–	–	65%	70%	3.5 L/kg	1200 nM
c1cc2sc(Oc3ccc(CN4CCCCC4)cc3)nc2cn1	–	1800 nM	–	–	–	–	–	–	–	–	–
CC(=O)N1CC2CC1CN2CCOc1ccc(Oc2nc3ncccc3s2)cc1 (centres undefined)	18 nM	7 nM	–	–	84%	–	–	–	72%	–	–
CC(=O)NC1CC2CCC(C1)N2CCOc1ccc(Oc2nc3ncccc3s2)cc1 (centres undefined)	24 nM	4 nM	–	–	85%	–	–	–	74%	–	–
CC(=O)NC1CC2CCC(C1)N2CCc1ccc(Oc2nc3ncccc3s2)cc1 (centres undefined)	–	0.3 nM	–	–	85%	–	–	–	78%	–	–

The next lines start with results.

IC50 [6]	IC50 [11]	Compound	clearance [1]	half-life [2]	inhibition in vivo at 30 mg/kg [3]	IC50 [4]	IC50 [5]	bioavailability [7]	inhibition in vivo at 30 mg/kg [8]	Vd [9]	Cmax [10]
7 nM	5 nM	CC(=O)N1CC2CC1CN2Cc1ccc(Oc2nc3ncccc3s2)cc1 (centres undefined)	7 mL/min/kg	3.3 h	92%	> 10000 nM	> 10000 nM	125%	88%	1.4 L/kg	3300 nM
37 nM	6 nM	NC(=O)C1CCN(Cc2ccc(Oc3nc4ncccc4s3)cc2)CC1	–	–	85%	> 10000 nM	8900 nM	–	89%	–	–
18 nM	8 nM	c1cnc2nc(Oc3ccc(OCCN4CCCCC4)cc3)sc2c1	–	–	65%	–	–	–	62%	–	–
14 nM	3 nM	c1cnc2nc(Oc3ccc(CN4CCCCC4)cc3)sc2c1	–	–	67%	–	> 10000 nM	–	48%	–	–
30 nM	7 nM	CC(=O)N1CC2CN(CCOc3ccc(Oc4nc5ncccc5s4)cc3)CC2C1 (centres undefined)	–	–	81%	–	> 10000 nM	–	86%	–	–
24 nM	–	c1cnc2nc(Oc3ccc(CCN4CCCCC4)cc3)sc2c1	–	–	70%	–	> 10000 nM	–	36%	–	–
10 nM	–	CC(=O)N1CC2CN(Cc3ccc(Oc4nc5ncccc5s4)cc3)CC2C1 (centres undefined)	–	–	57%	–	–	–	95%	–	–
30 nM	16 nM	NC(=O)C1CCN(CCOc2ccc(Oc3nc4ncccc4s3)cc2)CC1	–	–	80%	–	> 10000 nM	–	71%	–	–
245 nM	–	Clc1cnc2nc(Oc3ccc(CN4CCCCC4)cc3)sc2c1	–	–	–	–	> 10000 nM	–	–	–	–
20 nM	6 nM	O=C1CCCN1C1CCN(CCOc2ccc(Oc3nc4ncccc4s3)cc2)CC1	–	–	89%	2500 nM	> 10000 nM	–	76%	–	–
82 nM	–	Cc1ccnc2nc(Oc3ccc(CN4CCCCC4)cc3)sc12	–	–	12%	–	–	–	42%	–	–
27 nM	6 nM	O=C1CCCN1C1CCN(Cc2ccc(Oc3nc4ncccc4s3)cc2)CC1	–	–	81%	> 10000 nM	> 10000 nM	–	88%	–	–
